Measurements taken from patent US20230272016A1, “PEPTIDES FOR IMMUNOTHERAPY” (Second Genome, Inc., priority 2020, published 2023).

Test system: human T cells
Assay: Human T cell activation assay (anti-CD3 plus peptide, cytokine secretion)
Type: cell-based
Method: FIGS. 11 and 12 show 150 peptide variants of the SG-3-0020 1-29 aa N-terminal+middle region, derived from a combinatorial phage display library, were tested for activation potential of human T cells. […] Increase in cytokine secretion was concordant in 3 donors.
For example, PBMCs were obtained from individual human donors.
T-cell activation was also determined as described previously (see above and International Application No. PCT/US2020/012431). […] Separate N-, MID, and C-terminal fragments lose activity. The data support that both N- and middle region are minimally required for binding and activation to T cells.

[1] = Table 11, 150 combinatorial library variants of SEQ ID NO:1
[2] = Table 10, combinatorial library variants of SEQ ID NO:1

FASAAKGKTHDHWGSGRYRPPPWHDWRGS [SEQ ID NO: 244]
mean_ES_IFN-γ [1]: 0.9882

FASAAKGKTHDHYPGGRMRPPPWHDWRFS [SEQ ID NO: 254]
mean_ES_IFN-γ [1]: 0.9426

FASAAKGKTHDHYPSGRYRPPPWHDWRAS [SEQ ID NO: 298]
mean_ES_IFN-γ [1]: 0.6625

FASAAKGKTHDHYWSGRYRPPPWHDWRAS [SEQ ID NO: 33]
mean_ES_IFN-γ [2]: 1.036 | mean_ES_IFN-γ [1]: 1.036

FASGAKGKTHDHNWGGRYRDPGWHDWRAS [SEQ ID NO: 281]
mean_ES_IFN-γ [1]: 0.7548

FASGAKGKTHDHYPSGRHRPPPWHDWRAS [SEQ ID NO: 316]
mean_ES_IFN-γ [1]: 0.5231

FGSAAKGKTHDHWPSGRHRDPGWHDWRFS [SEQ ID NO: 23]
mean_ES_IFN-γ [2]: 1.129 | mean_ES_IFN-γ [1]: 1.129

FGSAAKGKTHDHYWSGRMRPPPWHDWRGS [SEQ ID NO: 34]
mean_ES_IFN-γ [2]: 1.028 | mean_ES_IFN-γ [1]: 1.028

FGSGAKGKTHDHWGGGRHRPPPWHDWRGS [SEQ ID NO: 6]
mean_ES_IFN-γ [2]: 1.321 | mean_ES_IFN-γ [1]: 1.321

FGSGAKGKTHDHYPSGRMRPPPWHDWRVR [SEQ ID NO: 7]
mean_ES_IFN-γ [2]: 1.319 | mean_ES_IFN-γ [1]: 1.319

FLSAAKGKTHDHNWGGRMRPPPWHDWRFS [SEQ ID NO: 255]
mean_ES_IFN-γ [1]: 0.935

FLSGAKGKTHDHYPSGRYRPPPWHDWRAR [SEQ ID NO: 15]
mean_ES_IFN-γ [2]: 1.193 | mean_ES_IFN-γ [1]: 1.193

FPSGAKTKWHDHNPSGRMRDPPWHDWRFS [SEQ ID NO: 306]
mean_ES_IFN-γ [1]: 0.6024

FPSGAKTKWHDHNPSGRMRDPPWHDWRFSa [SEQ ID NO: 273]
mean_ES_IFN-γ [1]: 0.8203

FQSTAKGKTHDHWPSGRMRPPPWHDWRAS [SEQ ID NO: 267]
mean_ES_IFN-γ [1]: 0.8487

FSSAAKGKWHDHWPGGRYRDPPWHDWRVS [SEQ ID NO: 14]
mean_ES_IFN-γ [2]: 1.215 | mean_ES_IFN-γ [1]: 1.215

FSSAAKTKWHDHYGSGRYRPPPWHDWRFS [SEQ ID NO: 355]
mean_ES_IFN-γ [1]: −0.4086

FVSAAKGKTHDHYPSGRYRPPPWHDWRAR [SEQ ID NO: 25]
mean_ES_IFN-γ [2]: 1.088 | mean_ES_IFN-γ [1]: 1.088

FVSGAKGKWHDHWPSGRWRDPPWHDWRAS [SEQ ID NO: 10]
mean_ES_IFN-γ [2]: 1.26 | mean_ES_IFN-γ [1]: 1.26

FVSTAKGKTHDHNWSGRMRPPPWHDWRGR [SEQ ID NO: 248]
mean_ES_IFN-γ [1]: 0.9668

MASAAKGKTHDHYPGGRMRPPPWHDWRAS [SEQ ID NO: 252]
mean_ES_IFN-γ [1]: 0.9483

MASAAKGKTHDHYPSGRMRPPPWHDWRFS [SEQ ID NO: 263]
mean_ES_IFN-γ [1]: 0.8848

MASAAKGKWHDHNPSGRHRDPGWHDWWGS [SEQ ID NO: 288]
mean_ES_IFN-γ [1]: 0.7207

MASAAKGKWHDHWGSGRHRPPPWHDWRVS [SEQ ID NO: 11]
mean_ES_IFN-γ [2]: 1.237 | mean_ES_IFN-γ [1]: 1.237

MASAAKTKWHDHYPSGRMRPPPWHDWRAR [SEQ ID NO: 27]
mean_ES_IFN-γ [2]: 1.075 | mean_ES_IFN-γ [1]: 1.075

MASGAKGKTHDHNWSGRMRPPPWHDWRGR [SEQ ID NO: 245]
mean_ES_IFN-γ [1]: 0.9801

MASGAKGKTHDHYPGGRMRPPPWHDWRAR [SEQ ID NO: 287]
mean_ES_IFN-γ [1]: 0.7208

MASGAKGKWHDHYGGGRMRDPGWHDWRFS [SEQ ID NO: 342]
mean_ES_IFN-γ [1]: 0.2325

MASTAKGKTHDHWPGGRMRPPPWHDWRGS [SEQ ID NO: 320]
mean_ES_IFN-γ [1]: 0.5063

MASTAKGKTHDHYGGGRMRPPPWHDWRVR [SEQ ID NO: 314]
mean_ES_IFN-γ [1]: 0.5458

MGSAAKGKTHDHYPSGRMRPPPWHDWRGS [SEQ ID NO: 349]
mean_ES_IFN-γ [1]: −0.09755

MGSAAKGKWHDHNGSGRMRPPPWHDWRAR [SEQ ID NO: 279]
mean_ES_IFN-γ [1]: 0.7782

MGSAAKGKWHDHYGSGRMRPPPWHDWRVR [SEQ ID NO: 262]
mean_ES_IFN-γ [1]: 0.8865

MGSAAKGKWHDHYPGGRHRDPPWHDWRAS [SEQ ID NO: 319]
mean_ES_IFN-γ [1]: 0.5086

MGSAAKTKWHDHYGGGRMRPPPWHDWRAR [SEQ ID NO: 247]
mean_ES_IFN-γ [1]: 0.9744

MGSAAKTKWHDHYPGGRMRPPPWHDWRFS [SEQ ID NO: 337]
mean_ES_IFN-γ [1]: 0.2836

MGSGAKGKTHDHNWGGRHRDPGWHDWWVS [SEQ ID NO: 285]
mean_ES_IFN-γ [1]: 0.7319

MGSGAKGKTHDHWPSGRMRPPPWHDWRVS [SEQ ID NO: 268]
mean_ES_IFN-γ [1]: 0.8466

MGSGAKTKTHDHYPGGRYRPPPWHDWRVS [SEQ ID NO: 276]
mean_ES_IFN-γ [1]: 0.8105

MGSGAKTKWHDHWPSGRMRPPPWHDWRFS [SEQ ID NO: 284]
mean_ES_IFN-γ [1]: 0.7374

MLSAAKGKTHDHYPSGRYRPPPWHDWRAR [SEQ ID NO: 269]
mean_ES_IFN-γ [1]: 0.8464

MLSAAKTKTHDHWGSGRMRDPPWHDWRVS [SEQ ID NO: 351]
mean_ES_IFN-γ [1]: −0.1331

MLSGAKGKTHDHYWGGRMRPPPWHDWRGS [SEQ ID NO: 22]
mean_ES_IFN-γ [2]: 1.134 | mean_ES_IFN-γ [1]: 1.134

MLSGAKTKTHDHNPSGRMRDPPWHDWRVR [SEQ ID NO: 293]
mean_ES_IFN-γ [1]: 0.7047

MLSTAKGKTHDHWGGGRMRPPPWHDWRFS [SEQ ID NO: 2]
mean_ES_IFN-γ [2]: 1.408 | mean_ES_IFN-γ [1]: 1.408

MLSTAKGKTHDHYGGGRMRPPPWHDWRFS [SEQ ID NO: 249]
mean_ES_IFN-γ [1]: 0.9561

MLSTAKGKTHDHYWGGRMRPPPWHDWRFS [SEQ ID NO: 292]
mean_ES_IFN-γ [1]: 0.7049

MPSAAKGKTHDHNGGGRMRPPPWHDWRFS [SEQ ID NO: 311]
mean_ES_IFN-γ [1]: 0.5631

MPSAAKGKTHDHYPSGRMRPPPWHDWRGR [SEQ ID NO: 333]
mean_ES_IFN-γ [1]: 0.3234

MPSAAKGKTHDHYWSGRMRPPPWHDWRVS [SEQ ID NO: 246]
mean_ES_IFN-γ [1]: 0.9753

MPSAAKGKWHDHYGSGRYRPPPWHDWRVR [SEQ ID NO: 326]
mean_ES_IFN-γ [1]: 0.43

MPSAAKGKWHDHYPGGRMRDPKWHDWRFS [SEQ ID NO: 8]
mean_ES_IFN-γ [2]: 1.282 | mean_ES_IFN-γ [1]: 1.282

MPSAAKGKWHDHYPSGRMRPPPWHDWRAR [SEQ ID NO: 12]
mean_ES_IFN-γ [2]: 1.216 | mean_ES_IFN-γ [1]: 1.216

MPSAAKTKWHDHNWSGRMRPPPWHDWRAR [SEQ ID NO: 270]
mean_ES_IFN-γ [1]: 0.8446

MPSAAKTKWHDHYPGGRMRPPPWHDWRGR [SEQ ID NO: 16]
mean_ES_IFN-γ [2]: 1.186 | mean_ES_IFN-γ [1]: 1.186

MPSAAKTKWHDHYPSGRMRPPPWHDWRGR [SEQ ID NO: 28]
mean_ES_IFN-γ [2]: 1.071 | mean_ES_IFN-γ [1]: 1.071

MPSGAKGKTHDHYGGGRMRPPPWHDWRFS [SEQ ID NO: 13]
mean_ES_IFN-γ [2]: 1.216 | mean_ES_IFN-γ [1]: 1.216

MPSGAKGKWHDHYGGGRMRDPGWHDWRGS [SEQ ID NO: 317]
mean_ES_IFN-γ [1]: 0.5191

MPSTAKGKWHDHNPSGRMRPPPWHDWRGR [SEQ ID NO: 277]
mean_ES_IFN-γ [1]: 0.7934

MSSAAKGKTHDHNWSGRYRPPPWHDWRVR [SEQ ID NO: 242]
mean_ES_IFN-γ [1]: 0.9993

MSSGAKGKWHDHNWGGRMRDPGWHDWWGS [SEQ ID NO: 301]
mean_ES_IFN-γ [1]: 0.6348

MSSGAKGKWHDHYGSGRHRPPPWHDWRVR [SEQ ID NO: 243]
mean_ES_IFN-γ [1]: 0.9926

MSSGAKGKWHDHYPSGRMRPPPWHDWRFS [SEQ ID NO: 3]
mean_ES_IFN-γ [2]: 1.384 | mean_ES_IFN-γ [1]: 1.384

MSSGAKTKTHDHYPSGRMRPPPWHDWRAR [SEQ ID NO: 303]
mean_ES_IFN-γ [1]: 0.6184

MVSAAKTKTHDHNGGGRMRPPPWHDWRFS [SEQ ID NO: 258]
mean_ES_IFN-γ [1]: 0.9135

MVSTAKGKTHDHYGGGRYRPPPWHDWRAR [SEQ ID NO: 266]
mean_ES_IFN-γ [1]: 0.8498

MVSTAKGKTHDHYGSGRYRPPPWHDWRGS [SEQ ID NO: 340]
mean_ES_IFN-γ [1]: 0.276

MVSTAKGKTHDHYPSGRYRPPPWHDWRFS [SEQ ID NO: 29]
mean_ES_IFN-γ [2]: 1.052 | mean_ES_IFN-γ [1]: 1.052

PASAAKGKTHDHWPSGRHRDPPWHDWRGS [SEQ ID NO: 353]
mean_ES_IFN-γ [1]: −0.2788

PASAAKGKWHDHNPSGRMRDPPWHDWWGS [SEQ ID NO: 327]
mean_ES_IFN-γ [1]: 0.4162

PASGAKGKTHDHYPSGRWRDSGWHDWRFS [SEQ ID NO: 313]
mean_ES_IFN-γ [1]: 0.5536

PASGAKTKWHDHNPSGRHRDPPWHDWRVS [SEQ ID NO: 328]
mean_ES_IFN-γ [1]: 0.3967

PLSAAKGKWHDHYWSGRMRDPPWHDWRVS [SEQ ID NO: 260]
mean_ES_IFN-γ [1]: 0.8986

PLSAAKTKTHDHNWSGRYRPPPWHDWRAR [SEQ ID NO: 282]
mean_ES_IFN-γ [1]: 0.7514

PLSAAKTKWHDHYGGGRMRPPPWHDWRFS [SEQ ID NO: 265]
mean_ES_IFN-γ [1]: 0.8534

PSSAAKGKTHDHYPGGRYRDPGWHDWRGR [SEQ ID NO: 343]
mean_ES_IFN-γ [1]: 0.2141

PSSAAKGKTHDHYPGGRYRPPPWHDWRVS [SEQ ID NO: 264]
mean_ES_IFN-γ [1]: 0.8772

PTSAAKGKTHDHYPGGRYRDPPWHDWRAS [SEQ ID NO: 356]
mean_ES_IFN-γ [1]: −0.5055

PVSAAKGKTHDHWPGGRMRDPPWHDWRAS [SEQ ID NO: 329]
mean_ES_IFN-γ [1]: 0.3768

PVSAAKGKWHDHNWSGRMRPPPWHDWRAR [SEQ ID NO: 18]
mean_ES_IFN-γ [2]: 1.169 | mean_ES_IFN-γ [1]: 1.169

PVSAAKGKWHDHYPSGRWRDPPWHDWRAS [SEQ ID NO: 321]
mean_ES_IFN-γ [1]: 0.4882

SASAAKGKTHDHWGGGRHRDPPWHDWRFS [SEQ ID NO: 341]
mean_ES_IFN-γ [1]: 0.2746

SPSGAKGKTHDHYPSGRMRPPPWHDWRFS [SEQ ID NO: 261]
mean_ES_IFN-γ [1]: 0.8871

SPSGAKTKWHDHNPGGRMRPPPWHDWRAR [SEQ ID NO: 324]
mean_ES_IFN-γ [1]: 0.4459

SSSGAKGKWHDHNPSGRWRDPGWHDWRVR [SEQ ID NO: 325]
mean_ES_IFN-γ [1]: 0.4435

SSSGAKGKWHDHYGGGRHRDPPWHDWRGS [SEQ ID NO: 344]
mean_ES_IFN-γ [1]: 0.1326

SVSAAKGKTHDHYPSGRWRDPPWHDWRAS [SEQ ID NO: 300]
mean_ES_IFN-γ [1]: 0.645

VGSAAKTKTHDHYGGGRMRPPPWHDWRFS [SEQ ID NO: 331]
mean_ES_IFN-γ [1]: 0.3468

VGSGAKGKTHDHNGSGRYRPPPWHDWRFS [SEQ ID NO: 299]
mean_ES_IFN-γ [1]: 0.6497

VHSAAKTKTHDHWGSGRMRDPPWHDWRGS [SEQ ID NO: 346]
mean_ES_IFN-γ [1]: 0.04292
